Experimental data: patent US10058558B2, “Pharmaceutical composition comprising N1-cyclic amine-N5-substituted biguanide derivatives as an ingredient for preventing or treating fibrosis” (ImmunoMet Therapeutics Inc., priority 2013, dated 2018)
Read-outs that look alike come from different tables or passages of the source.

What was measured:
Snail = Snail expression in MCF7 cells (EMT-suppressing effect)
[1] = tested on: peritoneal mesothelial cells
Protocol: That is, this experiment was designed to examine the morphological change in the peritoneal mesothelial cells by high glucose treatment along with the expression levels of mRNA and proteins of fibrosis-mediating materials and the ECM-related materials.
To this end, the peritonea of the male wistar rats were dissected and their peritoneal mesothelial cells were subjected to primary culture using 0.25% trypsin-EDTA. The experiment was performed after dividing them into the following three groups:

Structure (SMILES): CC(=O)O.N=C(NC(=N)N1CCCC1)Nc1ccc(OC(F)(F)F)cc1 [Example 44, N1-pyrrolidine-N5-(4-trifluoromethoxy)phenyl biguanide acetate [N-(N-(4-(trifluoromethoxy)phenyl)carbamimidoyl)pyrrolidine-1-carboximidamideacetate]]
- suppression of the expression of Snail (Snail): strongly suppress the expression of Snail
- morphology of peritoneal mesothelial cells turned into myofibroblasts by high glucose treatment [1]: returned to maintain a shape similar to that of the normal ones (a cobblestone shape)

Structure (SMILES): CN(C)C(=N)N=C(N)N [metformin]
- suppression of the expression of Snail (Snail; MCF7 cells, 1000 μM, FIG. 1): failed to suppress the expression of Snail

Structure (SMILES): [H]/N=C(/N)N/C(=N/[H])NCCc1ccccc1 [phenformin]
- suppression of the expression of Snail (Snail; MCF7 cells, 10 μM, FIG. 1): did not show any effect regarding the suppression of Snail expression
